{"source": "ChEMBL document CHEMBL1134904", "about": "“The activity of p-methoxybenzylisothiocyanate against Neisseria gonorrhoeae, Haemophilus ducreyi, and other microorganisms” (Bioorg Med Chem Lett, 2002)", "key": {"Escherichia coli": {"tested_on": "Escherichia coli", "experiment": "The compound was tested for minimal inhibitory concentration against Escherichia coli", "assay_type": "functional"}, "Candida albicans": {"tested_on": "Candida albicans", "experiment": "The compound was tested for minimal inhibitory concentration against Candida albicans", "assay_type": "functional"}, "Staphylococcus aureus [1]": {"tested_on": "Staphylococcus aureus", "experiment": "The compound was tested for minimal inhibitory concentration against Resistant Staphylococcus aureus", "assay_type": "functional"}, "Pseudomonas aeruginosa [2]": {"tested_on": "Pseudomonas aeruginosa", "experiment": "The compound was tested for minimal inhibitory concentration against Resistant Pseudomonas aeruginosa", "assay_type": "functional"}, "Neisseria gonorrhoeae [3]": {"tested_on": "Neisseria gonorrhoeae", "experiment": "The compound was tested for minimal inhibitory concentration against Penicillinase producing Neisseria gonorrhoeae (PPNG)", "assay_type": "functional"}, "Neisseria gonorrhoeae [4]": {"tested_on": "Neisseria gonorrhoeae", "experiment": "The compound was tested for minimal inhibitory concentration against Neisseria gonorrhoeae", "assay_type": "functional"}, "Micrococcus luteus": {"tested_on": "Micrococcus luteus", "experiment": "The compound was tested for minimal inhibitory concentration against Micrococcus luteus", "assay_type": "functional"}, "Staphylococcus aureus [5]": {"tested_on": "Staphylococcus aureus", "experiment": "The compound was tested for minimal inhibitory concentration against Staphylococcus aureus", "assay_type": "functional"}, "Bacillus subtilis": {"tested_on": "Bacillus subtilis", "experiment": "The compound was tested for minimal inhibitory concentration against Bacillus subtilis", "assay_type": "functional"}, "Pseudomonas aeruginosa [6]": {"tested_on": "Pseudomonas aeruginosa", "experiment": "The compound was tested for minimal inhibitory concentration against Pseudomonas aeruginosa", "assay_type": "functional"}, "[7]": {"experiment": "In vitro cellular toxicity was determined at a concentration of 100 uM in Graham cell lines; found to be non toxic at the above concentration", "assay_type": "cell-based"}, "Enterobacter sp.": {"tested_on": "Enterobacter sp.", "experiment": "The compound was tested for minimal inhibitory concentration against Enterobacter sp.", "assay_type": "functional"}, "[Haemophilus] ducreyi": {"tested_on": "[Haemophilus] ducreyi", "experiment": "The compound was tested for minimal inhibitory concentration against Haemophilus ducreyi", "assay_type": "functional"}}, "data": [{"smiles": "COc1ccc(CN=C=S)cc1", "values": [{"measurement": "MIC", "setting": "Escherichia coli", "result": 32, "unit": "µg/mL"}, {"measurement": "MIC", "setting": "Candida albicans", "result": 2, "unit": "µg/mL"}, {"measurement": "MIC", "setting": "Staphylococcus aureus [1]", "result": 8, "unit": "µg/mL"}, {"measurement": "MIC", "setting": "Pseudomonas aeruginosa [2]", "result": 16, "unit": "µg/mL"}, {"measurement": "MIC", "setting": "Neisseria gonorrhoeae [3]", "result": 4, "unit": "µg/mL"}, {"measurement": "MIC", "setting": "Neisseria gonorrhoeae [4]", "result": 4, "unit": "µg/mL"}, {"measurement": "MIC", "setting": "Micrococcus luteus", "result": 8, "unit": "µg/mL"}, {"measurement": "MIC", "setting": "Staphylococcus aureus [5]", "result": 2, "unit": "µg/mL"}, {"measurement": "MIC", "setting": "Bacillus subtilis", "result": 32, "unit": "µg/mL"}, {"measurement": "MIC", "setting": "Pseudomonas aeruginosa [6]", "result": 16, "unit": "µg/mL"}, {"measurement": "Toxicity", "setting": "[7]", "result": "Not toxic"}, {"measurement": "MIC", "setting": "Enterobacter sp.", "result": 8, "unit": "µg/mL"}, {"measurement": "MIC", "setting": "[Haemophilus] ducreyi", "result": 64, "unit": "µg/mL"}]}, {"smiles": "C[C@@H]1[C@H](O)[C@@H](C)/C=C/C=C/C=C/C=C/C=C/C=C/C=C/[C@H](O[C@@H]2O[C@H](C)[C@@H](O)[C@H](N)[C@@H]2O)C[C@@H]2O[C@](O)(C[C@@H](O)C[C@@H](O)[C@H](O)CC[C@@H](O)C[C@@H](O)CC(=O)O[C@H]1C)C[C@H](O)[C@H]2C(=O)O", "note": "(relative stereo) [AMPHOTERICIN B]", "values": [{"measurement": "MIC", "setting": "Candida albicans", "result": 2, "unit": "µg/mL"}]}, {"smiles": "CC1(C)S[C@@H]2[C@H](NC(=O)[C@H](N)c3ccccc3)C(=O)N2[C@H]1C(=O)O", "note": "[AMPICILLIN]", "values": [{"measurement": "MIC", "setting": "Escherichia coli", "result": 8, "unit": "µg/mL"}, {"measurement": "MIC", "setting": "Staphylococcus aureus [1]", "result": "> 32", "unit": "µg/mL"}, {"measurement": "MIC", "setting": "Neisseria gonorrhoeae [3]", "result": "> 32", "unit": "µg/mL"}, {"measurement": "MIC", "setting": "Neisseria gonorrhoeae [4]", "result": 0.25, "unit": "µg/mL"}, {"measurement": "MIC", "setting": "Micrococcus luteus", "result": 2, "unit": "µg/mL"}, {"measurement": "MIC", "setting": "Staphylococcus aureus [5]", "result": 2, "unit": "µg/mL"}, {"measurement": "MIC", "setting": "Bacillus subtilis", "result": "> 32", "unit": "µg/mL"}, {"measurement": "MIC", "setting": "Pseudomonas aeruginosa [6]", "result": "> 32", "unit": "µg/mL"}, {"measurement": "MIC", "setting": "Enterobacter sp.", "result": 16, "unit": "µg/mL"}, {"measurement": "MIC", "setting": "[Haemophilus] ducreyi", "result": 2, "unit": "µg/mL"}]}, {"smiles": "O=C(O)c1cn(C2CC2)c2cc(N3CCNCC3)c(F)cc2c1=O", "note": "[CIPROFLOXACIN]", "values": [{"measurement": "MIC", "setting": "Staphylococcus aureus [1]", "result": "> 32", "unit": "µg/mL"}, {"measurement": "MIC", "setting": "Pseudomonas aeruginosa [2]", "result": "> 32", "unit": "µg/mL"}, {"measurement": "MIC", "setting": "Neisseria gonorrhoeae [3]", "result": 0.25, "unit": "µg/mL"}, {"measurement": "MIC", "setting": "Neisseria gonorrhoeae [4]", "result": 0.25, "unit": "µg/mL"}, {"measurement": "MIC", "setting": "Micrococcus luteus", "result": 2, "unit": "µg/mL"}, {"measurement": "MIC", "setting": "Staphylococcus aureus [5]", "result": 2, "unit": "µg/mL"}, {"measurement": "MIC", "setting": "Bacillus subtilis", "result": 2, "unit": "µg/mL"}, {"measurement": "MIC", "setting": "Enterobacter sp.", "result": 2, "unit": "µg/mL"}]}, {"smiles": "C[C@H]1c2cccc(O)c2C(=O)C2=C(O)[C@]3(O)C(=O)C(C(N)=O)=C(O)[C@@H](N(C)C)[C@@H]3[C@@H](O)[C@@H]21.O", "note": "[DOXYCYCLINE]", "values": [{"measurement": "MIC", "setting": "Escherichia coli", "result": 2, "unit": "µg/mL"}, {"measurement": "MIC", "setting": "Staphylococcus aureus [1]", "result": "> 32", "unit": "µg/mL"}, {"measurement": "MIC", "setting": "Pseudomonas aeruginosa [2]", "result": "> 32", "unit": "µg/mL"}, {"measurement": "MIC", "setting": "Neisseria gonorrhoeae [3]", "result": "> 32", "unit": "µg/mL"}, {"measurement": "MIC", "setting": "Neisseria gonorrhoeae [4]", "result": 0.5, "unit": "µg/mL"}, {"measurement": "MIC", "setting": "Micrococcus luteus", "result": 8, "unit": "µg/mL"}, {"measurement": "MIC", "setting": "Staphylococcus aureus [5]", "result": 8, "unit": "µg/mL"}, {"measurement": "MIC", "setting": "Bacillus subtilis", "result": 8, "unit": "µg/mL"}, {"measurement": "MIC", "setting": "Pseudomonas aeruginosa [6]", "result": 8, "unit": "µg/mL"}, {"measurement": "MIC", "setting": "Enterobacter sp.", "result": 8, "unit": "µg/mL"}, {"measurement": "MIC", "setting": "[Haemophilus] ducreyi", "result": 4, "unit": "µg/mL"}]}, {"smiles": "OC(Cn1cncn1)(Cn1cncn1)c1ccc(F)cc1F", "note": "[FLUCONAZOLE]", "values": [{"measurement": "MIC", "setting": "Candida albicans", "result": 0.25, "unit": "µg/mL"}]}]}
